Measured values as given in patent US8637038B2, “Methods for inhibiting allograft rejection” (Rigel Pharmaceuticals, Inc., priority 2011, dated 2014).
Entries after “also recorded” stand apart in the source; their conditions may differ. Like-named read-outs stand apart in the source and are kept apart here.

Assays:
[1] = In vivo pharmacokinetics, plasma levels by LC/MS/MS; parameters: species or system Lewis rats; settings: for time of peak plasma level after administration: male Lewis rats
Description: Male Lewis rats were orally administered at dosages of Compound I HD (60 mg/kg/BID); Compound I LD (15 mg/kg/BID); Compound III HD (20 mg/kg/BID), and Compound III LD (5 mg/kg/BID), respectively. Plasma levels of drugs were quantified 0.5, 1, 1.5, 2, 3, 4, 6, 8, and 10 hours after administration. Plasma levels of Compound I and Compound III were quantified by LC/MS/MS.
Pharmacokinetics were performed in male Lewis rats. Plasma levels were measured within a 10 hour period. Resulting plasma concentrations of Compound I HD (60 mg/kg BID), Compound I LD (15 mg/kg BID), Compound III HD (20 mg/kg BID), and Compound III LD (5 mg/kg BID) are depicted in FIG. 1. Compound I HD and Compound I LD plasma levels peaked 1.5-2 hours after administration. Compound III HD plasma levels peaked after 3-3.5 hours and Compound III LD levels 2 hours after administration.

[2] = tested on: JAK1/2/Tyk2; assay: IL-6 whole blood lymphocytes phospho-STAT3; format: cell-based; settings: Lymphocyte, read-out: IL-6 whole blood lymphocytes phospho-STAT3 EC50
Description: The activity of Compound III and Compound I was assessed in a panel of cell-based assays. Compound III and Compound I are selective inhibitors of JAK1/3-dependent signaling. Data for a non-selective JAK inhibitor (Compound IV) is shown for reference. Mixed lymphocyte reactions (MLRs) were performed by incubating freshly prepared naive human peripheral blood lymphocytes from one donor with CD80+/CD86+ mature Dendritic Cells derived from a different donor for 5 days. The percentage of CD3+/CD71+ (anti-CD3-APC, Clone HIT3a, anti-CD 71-FITC, Clone M-A712; BD Biosciences, San Jose, Calif.) proliferating cells was assessed by fluorescence-activated cell sorting (FACS; BD Bioscience). Interleukin-2 (IL-2)-dependent human primary T cell proliferation was assessed using CellTiter-Glo® Luminescent Cell Viability Assay (Promega, Madison, Wis.). STAT phosphorylation induced by different cytokines in human primary T cells was measured by intracellular FACS analysis (anti-pY694-STAT5 AlexaFluor488, anti-pY701-STAT1 AlexaFluor488, and anti-pY693-STAT4 AlexaFluor488; BD Biosciences). […] Interferon-γ (IFN-γ) signaling was assessed in the U937 monocytic cell line by measuring ICAM-1 surface expression by FACS (ICAM-1-APC, BD Bioscience).

[3] = tested on: Syk, Lck, ZAP-70, VEGFR, INSR, EGFR and serine threonine kinases; assay: Panel of cell-based assays against non-JAK kinase targets
Description: The erythropoietin (EPO)-dependent survival of cultured human erythroid progenitor cells (CHEPs) was determined using CellTiter-Glo® Luminescent Cell Viability Assay (Promega). Human primary T cell activation was assessed by measuring IL-2 production by ELISA (R&D Systems, Minneapolis, Minn., USA) following plate-bound anti-CD3 and anti-CD28 stimulation (Anti-Human CD3; BD Biosciences; Anti-Human CD28; Immunotech; Prague, Czech Republic). The enzymatic activity of tryptase released by human cultured mast cells (CHMCs) upon stimulation with IgE was quantified by cleavage of the synthetic fluorescent peptide substrate Z-Ala-Lys-Arg-7-amino-4-methylcoumarin (MP Biomedicals, Solon, Ohio, USA) in tryptase buffer. B-cell receptor-dependent Erk phosphorylation was measured in Ramos cells by intracellular FACS (anti-pT202/pY204-ERK1/2-AlexaFluor488; BD Biosciences). […]
Growth factor-dependent protein phosphorylation was detected in HeLa cells by staining permeabilized cells with phospho-specific antibodies and quantified by chemiluminescence (Luminator, Wallac Multilabel Counter; Perkin Elmer). […] Human umbilical vein endothelial cells (HUVECs) were stimulated with VEGF and VEGFR2 phosphorylation was assessed by ELISA (100 ng/ml VEGF165, R&D Systems; Rabbit anti-phospho-VEGFR2 mAb, Cell Signaling Technology). […]

[4] = tested on: A549 epithelial cells; assay: A549 proliferation; format: cell-based; settings: Homo sapiens
Description: The erythropoietin (EPO)-dependent survival of cultured human erythroid progenitor cells (CHEPs) was determined using CellTiter-Glo® Luminescent Cell Viability Assay (Promega). Human primary T cell activation was assessed by measuring IL-2 production by ELISA (R&D Systems, Minneapolis, Minn., USA) following plate-bound anti-CD3 and anti-CD28 stimulation (Anti-Human CD3; BD Biosciences; Anti-Human CD28; Immunotech; Prague, Czech Republic). The enzymatic activity of tryptase released by human cultured mast cells (CHMCs) upon stimulation with IgE was quantified by cleavage of the synthetic fluorescent peptide substrate Z-Ala-Lys-Arg-7-amino-4-methylcoumarin (MP Biomedicals, Solon, Ohio, USA) in tryptase buffer. B-cell receptor-dependent Erk phosphorylation was measured in Ramos cells by intracellular FACS (anti-pT202/pY204-ERK1/2-AlexaFluor488; BD Biosciences). Cell proliferation assays were performed using A549 epithelial cells and H1299 lung carcinoma cells using nuclear staining to measure cell numbers (4′6-diamidino-2-phenylindole, dihydrochloride (DAPI; Invitrogen, Darmstadt, Germany)).

[5] = target: T1, VEGFR2 (Homo sapiens, UniProt P35968); assay: VEGF HUVEC phospho-VEGFR2; format: cell-based
T1 construct: endogenous in cells; host or cells: HUVEC (human umbilical vein endothelial cells)
Description: Growth factor-dependent protein phosphorylation was detected in HeLa cells by staining permeabilized cells with phospho-specific antibodies and quantified by chemiluminescence (Luminator, Wallac Multilabel Counter; Perkin Elmer). Akt phosphorylation was measured following insulin stimulation and EGFR phosphorylation was measured following EGF stimulation (Phospho-AKT, Cell signaling technology, Danvers, Mass.; 1 μM Insulin, Millipore, Billerica, Mass.; Phospho-EGFR, tyr1173, clone 53A3, Cell Signaling Technology; 200 ng/ml recombinant human EGF, PeproTech, Hamburg, Germany). Human umbilical vein endothelial cells (HUVECs) were stimulated with VEGF and VEGFR2 phosphorylation was assessed by ELISA (100 ng/ml VEGF165, R&D Systems; Rabbit anti-phospho-VEGFR2 mAb, Cell Signaling Technology).

[6] = tested on: Lew recipients of heterotopic BN heart transplants; assay: Five-day heart allograft study: intragraft cytokines (Quantibody arrays); format: in vivo, rat; settings: HD groups; for intragraft IFN-γ release / intragraft IL-10 release compared to no medication group: five days; for intragraft IFN-γ release / intragraft IL-10 release compared to no medication group / intragraft IL-10 release compared to Tac HD treatment: p<0.05
Description: Compound I and Compound III were provided by Rigel (South San Francisco, Calif.) and Tacrolimus was provided by Astellas (Munich, Germany). All drugs were administrated orally each in two different concentrations: Compound I LD (15 mg/kg BID; n=6) and HD (60 mg/kg BID; n=6); […] Administration of all drugs was performed every day at the same time points. Tacrolimus was applied only once a day (QD) every 24 hours. During administration of Compound I (BID) and Compound III (BID) a 12 hour pause was kept in between each drug application. Lew recipients of heterotopic BN heart transplants were randomly assigned to their group. […] An untreated syngeneic transplant group Lew-Lew was generated as control. […] Hearts were equally homogenized in 400 μl RIPA buffer (Sigma-Aldrich, St. Louis, Mo.). The protein content within the supernatant was quantified using the colorimetric BCA protein assay (Thermo Fisher Scientific, Rockford, Ill.) at 562 nm wavelength, according to the manufacturer's protocol. A total of 300 μg protein per Quantibody® array glass chip was used to quantitatively measure the intracellular cytokine content by ELISA in quadruplicates (Human cytokine array 1, Raybiotech). All values were normalized to the standard curve. Glass chip analysis was performed by Raybiotech.

[7] = HD oral: Compound I 60 mg/kg BID, Compound III 20 mg/kg BID
[8] = LD oral: Compound I 15 mg/kg BID, Compound III 5 mg/kg BID

T1 sequence (P35968 20-1356): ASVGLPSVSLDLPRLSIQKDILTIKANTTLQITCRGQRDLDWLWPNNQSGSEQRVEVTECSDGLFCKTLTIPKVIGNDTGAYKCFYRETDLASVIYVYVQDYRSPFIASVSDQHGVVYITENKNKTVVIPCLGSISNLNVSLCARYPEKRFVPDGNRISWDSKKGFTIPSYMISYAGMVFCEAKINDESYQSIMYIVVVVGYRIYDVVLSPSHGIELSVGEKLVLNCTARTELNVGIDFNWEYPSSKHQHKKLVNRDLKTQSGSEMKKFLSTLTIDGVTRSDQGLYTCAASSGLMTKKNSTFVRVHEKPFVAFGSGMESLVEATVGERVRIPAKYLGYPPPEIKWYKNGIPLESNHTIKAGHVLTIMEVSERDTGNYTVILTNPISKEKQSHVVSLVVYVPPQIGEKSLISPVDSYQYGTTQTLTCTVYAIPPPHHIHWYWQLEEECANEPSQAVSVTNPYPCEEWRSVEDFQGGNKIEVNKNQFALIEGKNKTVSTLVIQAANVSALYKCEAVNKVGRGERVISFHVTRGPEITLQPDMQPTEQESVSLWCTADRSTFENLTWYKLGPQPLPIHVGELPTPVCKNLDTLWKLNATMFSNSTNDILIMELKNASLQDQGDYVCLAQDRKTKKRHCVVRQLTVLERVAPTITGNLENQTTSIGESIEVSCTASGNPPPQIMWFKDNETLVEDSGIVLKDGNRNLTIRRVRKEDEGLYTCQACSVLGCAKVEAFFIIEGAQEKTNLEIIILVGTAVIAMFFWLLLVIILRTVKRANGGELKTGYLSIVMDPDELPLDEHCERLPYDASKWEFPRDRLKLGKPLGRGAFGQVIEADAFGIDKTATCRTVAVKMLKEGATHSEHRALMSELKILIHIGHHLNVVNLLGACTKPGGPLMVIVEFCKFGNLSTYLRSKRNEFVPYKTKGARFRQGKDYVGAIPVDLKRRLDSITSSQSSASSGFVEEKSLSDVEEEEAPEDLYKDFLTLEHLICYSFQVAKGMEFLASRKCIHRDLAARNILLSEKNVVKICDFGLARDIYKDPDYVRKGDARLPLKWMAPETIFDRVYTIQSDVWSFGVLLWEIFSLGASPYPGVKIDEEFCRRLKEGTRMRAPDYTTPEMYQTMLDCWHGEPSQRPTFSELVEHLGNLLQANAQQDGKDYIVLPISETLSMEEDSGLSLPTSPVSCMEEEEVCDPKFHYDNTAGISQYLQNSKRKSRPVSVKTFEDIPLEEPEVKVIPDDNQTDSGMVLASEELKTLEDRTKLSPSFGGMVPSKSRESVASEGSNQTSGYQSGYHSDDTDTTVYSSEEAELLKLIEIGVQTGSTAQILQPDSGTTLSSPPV

Row | Compound | time of peak plasma level after administration [1, 7] [h] | time of peak plasma level after administration [1, 8] [h] | EC50 ([2]; whole blood, JAK1/2/Tyk2) [µM] | inhibition of other (non-JAK) kinase targets in cells [3] | EC50 ([4]; A549, upstream kinases Multiple, read-out: A549 proliferation EC50) [µM] | EC50 [5] [µM] | intragraft MCP-1 release compared to Tac HD treatment [6] | intragraft IFN-γ release [6] | intragraft IL-10 release compared to no medication group [6] | intragraft IL-10 release compared to Tac HD treatment [6] | AUC of HD group relative to LD group ([1]; Compound I 60 vs 15 mg/kg BID, Compound III 20 vs 5 mg/kg BID, 10 hour period) [fold] | EC50 [2] [µM] | EC50 ([4]; A549, read-out: A549 proliferation EC50) [µM]
1 | COc1cc(Nc2ncc(C)c(Nc3ccc4oc(=O)[nH]c4c3)n2)cc(C)c1F [Compound I, 5-(2-(4-fluoro-3-methoxy-5-methylphenylamino)-5-methylpyrimidin-4-ylamino)benzo[d]oxazol-2(3H)-one] | 1.5 to 2 | 1.5 to 2 | 3.83 ± 1.52 | very limited inhibition | 1.86 ± 0.251 | 17.8 ± 3.87 | lower mean values | significantly less; also recorded: significant reduction | significantly reduced; also recorded: significant reduction | significantly less IL-10 release |  |  | 
2 | COc1cc(Nc2ncc(C)c(Nc3ccc4oc(=O)[nH]c4c3)n2)cc(C)c1C [Compound III, 5-(2-(3-methoxy-4,5-dimethylphenylamino)-5-methylpyrimidin-4-ylamino)benzol[d]oxazol-2-(3H)-one] | 3 to 3.5 | 2 |  | very limited inhibition |  | 29.3 ± 14.3 | lower mean values | significantly less; also recorded: significant reduction | significantly reduced; also recorded: significant reduction | significantly less IL-10 release | > 22 | 6.69 ± 1.61 | 5.42 ± 3.04
